Assay results reported in patent US12122815B2, “GIP receptor agonist peptide compounds and uses thereof” (TAKEDA PHARMACEUTICAL COMPANY LIMITED, priority 2018, dated 2024).

What was measured:
[1] = target: T1, human GIPR (Homo sapiens, UniProt P48546); assay: Agonist activity on human GIPR, CRE-luciferase reporter assay with increase in intracellular cAMP as indicator (hGIPR/CRE-LUC/CHO-K1 cell); format: cell-based
T1 construct: FLAG (N)
T1 sequence (P48546 22-466): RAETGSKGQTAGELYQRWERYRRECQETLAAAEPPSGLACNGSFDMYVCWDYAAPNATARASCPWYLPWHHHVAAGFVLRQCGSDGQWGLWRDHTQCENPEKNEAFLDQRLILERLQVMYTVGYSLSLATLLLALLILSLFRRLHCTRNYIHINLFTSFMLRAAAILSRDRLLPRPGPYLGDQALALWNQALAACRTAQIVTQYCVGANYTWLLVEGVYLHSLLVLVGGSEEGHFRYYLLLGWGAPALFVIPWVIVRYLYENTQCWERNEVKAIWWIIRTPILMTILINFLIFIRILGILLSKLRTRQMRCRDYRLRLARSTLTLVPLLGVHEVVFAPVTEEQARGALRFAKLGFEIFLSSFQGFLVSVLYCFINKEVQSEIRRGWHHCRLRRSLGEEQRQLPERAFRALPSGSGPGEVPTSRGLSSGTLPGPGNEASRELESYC
Description: (§1) Evaluation of Agonist Activity on Human GIPR and Human GLP-1R with Increase in Intracellular cAMP Concentration as Indicator
(§2) A) Evaluation of Agonist Activity on Human GIPR and Human GLP-IR with Increase in Intracellular cAMP Concentration as Indicator
(1) Construction of Expression Plasmid of Human GIPR Gene. The Human GIPR Gene Having an Identical Sequence to Genebank Accession No. U39231 was Cloned into a pMSRα-Neo Vector to Prepare hGIPR/pMSRα-Neo.
(2) Construction of Reporter Plasmid Expressing Cell Luciferase Reporter Gene with a cAMP-Responsive Sequence Located Upstream was Transferred to a CHO-K1 Cell to Construct a CRE-LUC/CHO-K1 Cell.
(§3) (3) Construction of Reporter Plasmid
(§4) Four Copies of a cAMP responsive sequence and a Zeocin resistance gene were transferred to pGL3(R2.2)-Basic Vector (Promega) to construct a Cre-luc(Zeo) reporter plasmid.
(4) Transfer of Human GIPR Gene to CRE-LUC/CHO-K1 Cell and Obtaining of Expressing Cell the Plasmid hGIPR/pMSRα-Neo Obtained in (1) was Transferred to the CRELUC.
CHO-K1 cell obtained in (2) to obtain a transformant. Subsequently, the cell line inducing the luciferase expression, hGIPR/CRE-LUC/CHO-K1 cell, was selected from the obtained transformant by adding GIP.
25 μL each of the hGIPR/CRE-LUC/CHO-K1 cell was inoculated in a 384-well white plate (Corning) in such a way as to provide 5×10^3 cells/well and cultured in a HamF12 medium containing 10% fetal bovine serum, 100 U/mL penicillin, and 100 μg/mL streptomycin in a CO2 incubator at 37° C. overnight. 5 μL of a medium containing a test compound was added to the cells and incubated for 4 hours at the indicated concentration in a CO2 incubator at 37° C. […] 20 Minutes later, luciferase activity was measured using a plate reader Envision (PerkinElmer). The GIPR agonist activity was calculated with increase in intracellular cAMP concentration as the indicator when the luciferase activity in the presence of 10 nM of GIP was 100% and the luciferase activity in the case of adding DMSO instead of the test compound was 0%.

[2] = target: T2, human GLP-1R (Homo sapiens, UniProt P43220); assay: Agonist activity on human GLP-1R, CRE-luciferase reporter assay with increase in intracellular cAMP as indicator (hGLP-1R/CRE-luc/CHO-K1 cell); format: cell-based
T2 construct: FLAG (N)
T2 sequence (P43220 24-463): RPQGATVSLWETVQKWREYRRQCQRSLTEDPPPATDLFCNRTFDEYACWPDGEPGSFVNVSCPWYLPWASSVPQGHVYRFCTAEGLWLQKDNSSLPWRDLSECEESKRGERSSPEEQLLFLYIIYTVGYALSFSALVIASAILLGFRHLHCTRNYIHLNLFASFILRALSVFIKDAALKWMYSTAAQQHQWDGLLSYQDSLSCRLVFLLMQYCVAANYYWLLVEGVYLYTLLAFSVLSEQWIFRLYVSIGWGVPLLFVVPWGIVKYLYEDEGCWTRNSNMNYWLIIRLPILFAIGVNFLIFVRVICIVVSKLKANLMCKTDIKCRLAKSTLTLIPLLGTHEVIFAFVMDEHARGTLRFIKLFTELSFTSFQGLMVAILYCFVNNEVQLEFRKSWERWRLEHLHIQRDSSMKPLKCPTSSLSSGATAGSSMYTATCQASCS
Description: as §1, §2, §3, §4
(5) Construction of Expression Plasmid of Human GLP-1R Gene
The human GLP-IR gene having an identical sequence to Genebank Accession No. NM_002062 was cloned into a pIRESneo3 vector to prepare hGLP-1/pIRESneo3.
(6) Transfer of Human GLP-1R Gene and Reporter Plasmid to CHO-K1 Cell and Obtaining of Expressing Cell
The Cre-luc (Zeo) obtained in (3) and the plasmid hGLP-1/pIRESneo3 obtained in (5) were transferred to the CHO-K1 cell to obtain a transformant. Subsequently, the cell line inducing the luciferase expression, hGLP-1R/CRE-luc/CHO-K1 cell, was selected from the obtained transformant by adding GLP-1.
25 μL each of the hGIPR/CRE-LUC/CHO-K1 cell was inoculated in a 384-well white plate (Corning) in such a way as to provide 5×10^3 cells/well and cultured in a HamF12 medium containing 10% fetal bovine serum, 100 U/mL penicillin, and 100 μg/mL streptomycin in a CO2 incubator at 37° C. overnight. 5 μL of a medium containing a test compound was added to the cells and incubated for 4 hours at the indicated concentration in a CO2 incubator at 37° C. Steady-Glo (Promega) was added in amounts of 30 μL and shaken under light shielding. 20 Minutes later, luciferase activity was measured using a plate reader Envision (PerkinElmer). The GIPR agonist activity was calculated with increase in intracellular cAMP concentration as the indicator when the luciferase activity in the presence of 10 nM of GIP was 100% and the luciferase activity in the case of adding DMSO instead of the test compound was 0%.
The GLP-IR agonist activity was assayed in the same manner as above using the hGLP-1R/CRE-luc/CHO-K1 cell.

Row | Compound | EC50 [1] [nM] | EC50 [2] [nM]
1 | CCCCCCCCCCCCCCCC(=O)NCCCC[C@H](NC(=O)[C@H](CO)NC(=O)[C@@H]1CCCN1C(=O)[C@@H]1CCCN1C(=O)[C@@H]1CCCN1C(=O)[C@H](C)NC(=O)CNC(=O)[C@H](CO)NC(=O)[C@H](CO)NC(=O)[C@@H]1CCCN1C(=O)CNC(=O)CNC(=O)[C@H](CCCCN)NC(=O)[C@H](CC(C)C)NC(=O)[C@H](CC(C)C)NC(=O)[C@H](Cc1c[nH]c2ccccc12)NC(=O)[C@H](CCCCN)NC(=O)[C@@H](NC(=O)[C@H](Cc1ccccc1)NC(=O)[C@H](CCC(=O)O)NC(=O)C(C)(C)NC(=O)[C@H](CCC(N)=O)NC(=O)[C@H](C)NC(=O)[C@H](CCC(N)=O)NC(=O)[C@H](CCCCN)NC(=O)[C@H](CC(=O)O)NC(=O)[C@H](CC(C)C)NC(=O)[C@H](CC(C)C)NC(=O)[C@@H](NC(=O)[C@H](CO)NC(=O)[C@H](Cc1ccc(O)cc1)NC(=O)[C@H](CC(=O)O)NC(=O)[C@H](CO)NC(=O)[C@H](CCCCN)NC(=O)[C@@H](NC(=O)[C@@H](NC(=O)CNC(=O)[C@H](CCC(=O)O)NC(=O)C(C)(C)NC(=O)[C@@H](N)Cc1ccc(O)cc1)[C@@H](C)O)C(C)C)[C@@H](C)CC)C(C)C)C(N)=O [Compound 10] | 0.03 | 210
2 | CC[C@H](C)[C@H](NC(=O)[C@H](CO)NC(=O)[C@H](Cc1ccc(O)cc1)NC(=O)[C@H](CC(=O)O)NC(=O)[C@H](CO)NC(=O)[C@H](CCCCN)NC(=O)[C@@H](NC(=O)[C@@H](NC(=O)CNC(=O)[C@H](CCC(=O)O)NC(=O)C(C)(C)NC(=O)[C@@H](N)Cc1ccc(O)cc1)[C@@H](C)O)C(C)C)C(=O)N[C@@H](CC(C)C)C(=O)N[C@@H](CC(C)C)C(=O)N[C@@H](CC(=O)O)C(=O)N[C@@H](CCCCN)C(=O)N[C@@H](CCC(N)=O)C(=O)N[C@@H](C)C(=O)N[C@@H](CCC(N)=O)C(=O)NC(C)(C)C(=O)N[C@@H](CCC(=O)O)C(=O)N[C@@H](Cc1ccccc1)C(=O)N[C@H](C(=O)N[C@@H](CCCCN)C(=O)N[C@@H](Cc1c[nH]c2ccccc12)C(=O)N[C@@H](CC(C)C)C(=O)N[C@@H](CC(C)C)C(=O)N[C@@H](CCCCN)C(=O)NCC(=O)NCC(=O)N1CCC[C@H]1C(=O)N[C@@H](CO)C(=O)N[C@@H](CO)C(=O)NCC(=O)N[C@@H](C)C(=O)N1CCC[C@H]1C(=O)N1CCC[C@H]1C(=O)N1CCC[C@H]1C(=O)N[C@@H](CO)C(=O)N[C@@H](CCCCNC(=O)CCCCCCCCCCCCCCC(=O)O)C(N)=O)C(C)C [Compound 11] | 0.1 | 180
3 | CCCCCCCCCCCCCCCCCCCC(=O)NCC(=O)NCC(=O)NCC(=O)NCC(=O)NCCCC[C@H](NC(=O)[C@H](CO)NC(=O)[C@@H]1CCCN1C(=O)[C@@H]1CCCN1C(=O)[C@@H]1CCCN1C(=O)[C@H](C)NC(=O)CNC(=O)[C@H](CO)NC(=O)[C@H](CO)NC(=O)[C@@H]1CCCN1C(=O)CNC(=O)CNC(=O)[C@H](CCCCN)NC(=O)[C@H](CC(C)C)NC(=O)[C@H](CC(C)C)NC(=O)[C@H](Cc1c[nH]c2ccccc12)NC(=O)[C@H](CCCCN)NC(=O)[C@@H](NC(=O)[C@H](Cc1ccccc1)NC(=O)[C@H](CCC(=O)O)NC(=O)C(C)(C)NC(=O)[C@H](CCC(N)=O)NC(=O)[C@H](C)NC(=O)[C@H](CCC(N)=O)NC(=O)[C@H](CCCCN)NC(=O)[C@H](CC(=O)O)NC(=O)[C@H](CC(C)C)NC(=O)[C@H](CC(C)C)NC(=O)[C@@H](NC(=O)[C@H](CO)NC(=O)[C@H](Cc1ccc(O)cc1)NC(=O)[C@H](CC(=O)O)NC(=O)[C@H](CO)NC(=O)[C@H](CCCCN)NC(=O)[C@@H](NC(=O)[C@@H](NC(=O)CNC(=O)[C@H](CCC(=O)O)NC(=O)C(C)(C)NC(=O)[C@@H](N)Cc1ccc(O)cc1)[C@@H](C)O)C(C)C)[C@@H](C)CC)C(C)C)C(N)=O [Compound 8] | 0.04 | 180
4 | CCCCCCCCCCCCCCCC(=O)NCCCC[C@H](NC(=O)[C@H](CO)NC(=O)[C@@H]1CCCN1C(=O)[C@@H]1CCCN1C(=O)[C@@H]1CCCN1C(=O)[C@H](C)NC(=O)CNC(=O)[C@H](CO)NC(=O)[C@H](CO)NC(=O)[C@@H]1CCCN1C(=O)[C@H](CCCCN)NC(=O)[C@H](CCC(N)=O)NC(=O)[C@H](C)NC(=O)[C@H](CC(C)C)NC(=O)[C@H](CC(C)C)NC(=O)[C@H](Cc1c[nH]c2ccccc12)NC(=O)[C@H](CC(N)=O)NC(=O)[C@@H](NC(=O)[C@H](Cc1ccccc1)NC(=O)[C@H](CC(=O)O)NC(=O)[C@H](CCC(N)=O)NC(=O)[C@H](CCC(N)=O)NC(=O)[C@H](Cc1c[nH]cn1)NC(=O)[C@@H](NC(=O)[C@H](CCCCN)NC(=O)[C@H](CC(=O)O)NC(=O)[C@H](CCSC)NC(=O)[C@H](C)NC(=O)[C@@H](NC(=O)[C@H](CO)NC(=O)[C@H](Cc1ccc(O)cc1)NC(=O)[C@H](CC(=O)O)NC(=O)[C@H](CO)NC(=O)[C@@H](NC(=O)[C@H](Cc1ccccc1)NC(=O)[C@@H](NC(=O)CNC(=O)[C@H](CCC(=O)O)NC(=O)[C@H](C)NC(=O)[C@@H](N)Cc1ccc(O)cc1)[C@@H](C)O)[C@@H](C)CC)[C@@H](C)CC)[C@@H](C)CC)C(C)C)C(N)=O [Compound 12] |  | 86
